In US9023789B2, “Amylin analogs and pharmaceutical compositions thereof” (Novo Nordisk A/S, priority 2012, dated 2015):
≈ marks a conversion by molar mass, not a printed value. Read-outs that look alike come from different tables or passages of the source. Numbered stars: 1 amine (or outer) side, 2 acyl side, 3 side chain; on linkers, the order of the positions; unused ones are H or OH. Bridge positions count the residues as written; N and C are the ends. Side chains are listed from the residue outwards. Peptide text beside a SMILES is read from it. * marks the point of attachment. C20 diacid = O=C(O)CCCCCCCCCCCCCCCCCCC(=O)*; γGlu = O=C(O)[C@H](CCC(=O)[*:2])N[*:1]; AEEA = NCCOCCOCC(=O)O

Experiments:
rat calcitonin receptor = biological target: T1, rat calcitonin receptor (Rattus norvegicus, UniProt P32214); test: ASSAY (VIII) binding to the rat calcitonin receptor; conditions: Table 7, read-out: rCTR bind IC50
T1 construct: expressed in transfected cells; host or cells: BHK tk'ts 13 (transient, FuGENE 6), membranes
T1 sequence (P32214 25-479 isoform P32214-2 limits assumed): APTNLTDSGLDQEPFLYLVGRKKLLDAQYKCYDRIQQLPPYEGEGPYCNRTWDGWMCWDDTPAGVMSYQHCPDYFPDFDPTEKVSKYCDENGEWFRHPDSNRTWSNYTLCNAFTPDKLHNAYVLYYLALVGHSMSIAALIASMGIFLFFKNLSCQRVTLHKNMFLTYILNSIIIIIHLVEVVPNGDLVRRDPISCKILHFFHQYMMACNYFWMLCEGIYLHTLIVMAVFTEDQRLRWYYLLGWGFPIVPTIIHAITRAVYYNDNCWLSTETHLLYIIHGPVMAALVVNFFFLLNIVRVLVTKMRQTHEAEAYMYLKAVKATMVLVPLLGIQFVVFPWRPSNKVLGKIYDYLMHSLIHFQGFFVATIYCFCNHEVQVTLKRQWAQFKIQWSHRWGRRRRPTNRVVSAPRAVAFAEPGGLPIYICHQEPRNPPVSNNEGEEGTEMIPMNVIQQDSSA
Method in brief: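 Rat calcitonin receptor is expressed transiently in BHK tk′ts 13 cells cultured in DMEM with 10% FBS. Roughly two days (approximately 48 hours) post-transfection, cells are harvested for membrane preparation.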

[1] = biological target: T2, rat amylin receptor (rat calcitonin receptor + rat RAMP 3) (Rattus norvegicus, UniProt P32214+Q9JJ73); test: ASSAY (VI) binding to the rat amylin receptor; conditions: for IC50: binding to rat amylin receptor, read-out: rAmylin-R bind IC50
T2 construct: expressed in transfected cells; host or cells: BHK tk'ts 13 (transient, FuGENE 6), membranes
T2 sequence (P32214 25-479 isoform P32214-2 limits assumed): T1 sequence (P32214 25-479 isoform P32214-2 limits assumed)
T2 sequence (Q9JJ73 23-147 partner): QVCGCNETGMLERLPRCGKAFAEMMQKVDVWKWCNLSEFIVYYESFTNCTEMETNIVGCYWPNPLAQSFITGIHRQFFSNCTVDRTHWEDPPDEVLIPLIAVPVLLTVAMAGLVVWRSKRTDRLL
Method in brief: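 This assay measured binding to the rat amylin receptor. BHK tk′ts 13 cells were transiently transfected with the rat calcitonin receptor using FuGENE® 6 (Roche), following the manufacturer's recommendations. About 48 hours after transfection, the cells were harvested and membranes were prepared from them for the binding determination.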

[2] = biological target: T3, human amylin 3(a) receptor (human calcitonin receptor + RAMP-3) in BHK570 cells (Homo sapiens, UniProt O60896+P30988); test: ASSAY (II)a functional assay, human amylin receptor (CRE luciferase); assay type: cell-based
T3 construct: expressed in transfected cells
T3 sequence (O60896 24-148): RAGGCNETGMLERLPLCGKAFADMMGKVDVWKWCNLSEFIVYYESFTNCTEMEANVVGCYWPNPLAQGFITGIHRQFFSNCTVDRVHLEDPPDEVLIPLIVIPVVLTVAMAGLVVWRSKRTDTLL
T3 sequence (P30988 25-474): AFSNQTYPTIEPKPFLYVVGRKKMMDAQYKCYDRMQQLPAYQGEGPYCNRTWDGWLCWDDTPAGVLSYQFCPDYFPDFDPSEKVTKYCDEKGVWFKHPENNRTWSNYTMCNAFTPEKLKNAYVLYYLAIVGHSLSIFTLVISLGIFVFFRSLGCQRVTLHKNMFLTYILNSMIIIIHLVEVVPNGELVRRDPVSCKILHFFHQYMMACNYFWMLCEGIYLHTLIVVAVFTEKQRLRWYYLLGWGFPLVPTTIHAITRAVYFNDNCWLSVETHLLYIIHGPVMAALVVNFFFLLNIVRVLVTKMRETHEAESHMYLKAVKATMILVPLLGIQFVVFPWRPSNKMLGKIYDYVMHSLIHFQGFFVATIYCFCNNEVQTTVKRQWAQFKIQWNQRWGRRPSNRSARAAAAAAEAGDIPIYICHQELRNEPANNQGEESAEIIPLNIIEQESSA
Method in brief: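 BHK CRE-luc cells, calcitonin (a) receptor ± RAMP-3 (amylin 3(a)); overnight seeding, 37° C/5% CO2. 3 h ligand exposure, DMEM/10% FBS/10 mM Hepes pH 7.4. LucLite 30 min RT; luminescence (SPC).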

[3] = ASSAY (IV) determination of solubility; assay type: physicochemical
Method in brief: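 Dissolve polypeptide in water ([…] stock); combine 1:1 with each 100 mM buffer (glycylglycine pH 3.0/4.0/5.0; bistrispropane pH 6.0/6.5/7.0/7.5/8.0); hold 18 hours at room temperature; centrifuge; quantify polypeptide by UPLC.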

[4] = Table 7, rat binding selectivity, rCTR IC50 / rAmylin-R IC50
[5] = Table 7a (preferred compounds), rat binding selectivity, rCTR IC50 / rAmylin-R IC50
[6] = ratio of rCTR bind IC50 to rAmylin-R bind IC50
[7] = hCTR funct. EC50 divided by hAmylin-R funct. EC50
[8] = hCTR funct. EC50 over hAmylin-R funct. EC50
[9] = human functional selectivity: hCTR funct. EC50 / hAmylin-R funct. EC50
[10] = bistrispropane buffer, pH 6.5, read-out: Solubility pH 6.5 Concentration
[11] = bistrispropane buffer, pH 7.5, read-out: Solubility pH 7.5 Concentration
[12] = bistrispropane buffer, pH 6.0, read-out: Solubility pH 6.0 Concentration
[13] = bistrispropane buffer, pH 7.0, read-out: Solubility pH 7.0 Concentration
[14] = bistrispropane buffer, pH 8.0, read-out: Solubility pH 8.0 Concentration
[15] = glycylglycine buffer, pH 3.0, read-out: Solubility pH 3.0 Concentration
[16] = glycylglycine buffer, pH 4.0, read-out: Solubility pH 4.0 Concentration
[17] = glycylglycine buffer, pH 5.0, read-out: Solubility pH 5.0 Concentration

IC50 (rat calcitonin receptor) [nM]	IC50 ([1]; Table 7) [nM]	Ratio rCT/rAmylin binding [1, 4]	Ratio rCT/rAmylin binding [1, 5]	Ratio rCT/rAmylin binding [1, 6]	Ratio hCT/hAmylin funct. [2, 7]	Ratio hCT/hAmylin funct. [2, 8]	Ratio hCT/hAmylin funct. [2, 9]	solubility at 18 h [3, 10] [µM]	solubility at 18 h [3, 11] [µM]	solubility at 18 h [3, 12] [µM]	solubility at 18 h [3, 13] [µM]	solubility at 18 h [3, 14] [µM]	solubility at 18 h [3, 15] [µM]	solubility at 18 h [3, 16] [µM]	solubility at 18 h [3, 17] [µM]	EC50 ([2]; human amylin receptor functional potency, assay (II), read-out: hAmylin-R funct. EC50) [nM]	SMILES
216	2.7	79.8	79.8	79.8	10.0	10.0	10.0	≥ 200	94 (≈ 422 µg/mL)	≥ 200	154 (≈ 691 µg/mL)	120 (≈ 539 µg/mL)	≥ 200	≥ 200	≥ 200		CC[C@H](C)[C@H](NC(=O)[C@H](C)NC(=O)CNC(=O)[C@H](Cc1ccccc1)NC(=O)[C@H](CC(N)=O)NC(=O)[C@@H]1CCCN1C(=O)[C@H](CO)NC(=O)[C@H](CO)NC(=O)[C@H](Cc1c[nH]cn1)NC(=O)[C@H](CCCNC(=N)N)NC(=O)[C@H](CC(C)C)NC(=O)[C@H](Cc1ccccc1)NC(=O)[C@H](Cc1c[nH]cn1)NC(=O)[C@H](C)NC(=O)[C@H](CC(C)C)NC(=O)[C@H](CCCNC(=N)N)NC(=O)[C@H](CCC(N)=O)NC(=O)[C@@H](NC(=O)[C@H](C)NC(=O)[C@@H]1CSSC[C@H](NC(=O)[C@H](CCCNC(=N)N)NC(=O)CNC(=O)CC[C@H](NC(=O)CCCCCCCCCCCCCCCCCCC(=O)O)C(=O)O)C(=O)N[C@@H](CC(N)=O)C(=O)N[C@@H]([C@@H](C)O)C(=O)N[C@@H](C)C(=O)N[C@@H]([C@@H](C)O)C(=O)N1)[C@@H](C)O)C(=O)N1CCC[C@H]1C(=O)N[C@@H](CO)C(=O)N[C@@H](CO)C(=O)N[C@H](C(=O)N[C@@H](CC(N)=O)C(=O)N[C@H](C(=O)NCC(=O)N[C@@H](CO)C(=O)N[C@@H](CC(N)=O)C(=O)N[C@H](C(=O)N[C@@H](Cc1ccc(O)cc1)C(N)=O)[C@@H](C)O)C(C)C)[C@@H](C)O [Example 99] ({C20 diacid-γGlu}-GRCNTATCATQRLAHFLRHSSPNFGAIPSSTNVGSNTY-NH2; disulfide 3-8)
143	1.64	87.0	87.0	87.0	59.2	59.2	59.2	≥ 200	≥ 200	≥ 200	≥ 200	≥ 200	≥ 200	≥ 200	≥ 200	0.215	CC[C@H](C)[C@H](NC(=O)[C@H](C)NC(=O)CNC(=O)[C@H](Cc1ccccc1)NC(=O)[C@H](CC(N)=O)NC(=O)[C@@H]1CCCN1C(=O)[C@H](CO)NC(=O)[C@H](CO)NC(=O)[C@H](Cc1c[nH]cn1)NC(=O)[C@H](CCCNC(=N)N)NC(=O)[C@H](CC(C)C)NC(=O)[C@H](Cc1ccccc1)NC(=O)[C@H](CCCNC(=N)N)NC(=O)[C@H](C)NC(=O)[C@H](CC(C)C)NC(=O)[C@H](CCCNC(=N)N)NC(=O)[C@H](CCC(N)=O)NC(=O)[C@@H](NC(=O)[C@H](C)NC(=O)[C@@H]1CSSC[C@H](NC(=O)[C@@H](N)CCCCNC(=O)COCCOCCNC(=O)CC[C@H](NC(=O)CCCCCCCCCCCCCCCCCCC(=O)O)C(=O)O)C(=O)N[C@@H](CC(N)=O)C(=O)N[C@@H]([C@@H](C)O)C(=O)N[C@@H](C)C(=O)N[C@@H]([C@@H](C)O)C(=O)N1)[C@@H](C)O)C(=O)N1CCC[C@H]1C(=O)N[C@@H](CO)C(=O)N[C@@H](CO)C(=O)N[C@H](C(=O)N[C@@H](CC(N)=O)C(=O)N[C@H](C(=O)NCC(=O)N[C@@H](CO)C(=O)N[C@@H](CC(N)=O)C(=O)N[C@H](C(=O)N[C@@H](Cc1ccc(O)cc1)C(N)=O)[C@@H](C)O)C(C)C)[C@@H](C)O [Example 82] (H-K([AEEA-γGlu-C20 diacid])CNTATCATQRLARFLRHSSPNFGAIPSSTNVGSNTY-NH2; disulfide 2-7; N-terminus assumed)
44.8	0.276	162.4	162.4	162.4	9.4		9.4	≥ 200	≥ 200	≥ 200	≥ 200	≥ 200	≥ 200	≥ 200	≥ 200		CC[C@H](C)[C@H](NC(=O)[C@H](C)NC(=O)CNC(=O)[C@H](Cc1ccccc1)NC(=O)[C@H](CC(N)=O)NC(=O)[C@@H]1CCCN1C(=O)[C@H](CO)NC(=O)[C@H](CO)NC(=O)[C@H](Cc1c[nH]cn1)NC(=O)[C@H](CCCNC(=N)N)NC(=O)[C@H](CC(C)C)NC(=O)[C@H](Cc1ccccc1)NC(=O)CNC(=O)[C@H](C)NC(=O)[C@H](CC(C)C)NC(=O)[C@H](CCCNC(=N)N)NC(=O)[C@H](CCC(N)=O)NC(=O)[C@@H](NC(=O)[C@H](C)NC(=O)[C@@H]1CSSC[C@H](NC(=O)[C@@H](N)CCCCNC(=O)COCCOCCNC(=O)CC[C@H](NC(=O)CCCCCCCCCCCCCCCCCCC(=O)O)C(=O)O)C(=O)N[C@@H](CC(N)=O)C(=O)N[C@@H]([C@@H](C)O)C(=O)N[C@@H](C)C(=O)N[C@@H]([C@@H](C)O)C(=O)N1)[C@@H](C)O)C(=O)N1CCC[C@H]1C(=O)N[C@@H](CO)C(=O)N[C@@H](CO)C(=O)N[C@H](C(=O)N1CCC[C@H]1C(=O)N[C@H](C(=O)NCC(=O)N[C@@H](CO)C(=O)N[C@@H](CC(N)=O)C(=O)N[C@H](C(=O)N[C@@H](Cc1ccc(O)cc1)C(N)=O)[C@@H](C)O)C(C)C)[C@@H](C)O [Example 71] (H-K([AEEA-γGlu-C20 diacid])CNTATCATQRLAGFLRHSSPNFGAIPSSTPVGSNTY-NH2; disulfide 2-7)
62.2	0.529	117.5	117.5	117.5	21.0	21.0	21.0	≥ 200	≥ 200	≥ 200	≥ 200	≥ 200	≥ 200	≥ 200	≥ 200		CC[C@H](C)[C@H](NC(=O)[C@H](C)NC(=O)CNC(=O)[C@H](Cc1ccccc1)NC(=O)[C@H](CC(N)=O)NC(=O)[C@@H]1CCCN1C(=O)[C@H](CO)NC(=O)[C@H](CO)NC(=O)[C@H](Cc1c[nH]cn1)NC(=O)[C@H](CCCNC(=N)N)NC(=O)[C@H](CC(C)C)NC(=O)[C@H](Cc1ccccc1)NC(=O)[C@H](CC(N)=O)NC(=O)[C@H](C)NC(=O)[C@H](CC(C)C)NC(=O)[C@H](CCCNC(=N)N)NC(=O)[C@H](CCC(N)=O)NC(=O)[C@@H](NC(=O)[C@H](C)NC(=O)[C@@H]1CSSC[C@H](NC(=O)[C@@H](N)CCCCNC(=O)COCCOCCNC(=O)COCCOCCNC(=O)CC[C@H](NC(=O)CCCCCCCCCCCCCCCCCCC(=O)O)C(=O)O)C(=O)N[C@@H](CC(N)=O)C(=O)N[C@@H]([C@@H](C)O)C(=O)N[C@@H](C)C(=O)N[C@@H]([C@@H](C)O)C(=O)N1)[C@@H](C)O)C(=O)N1CCC[C@H]1C(=O)N[C@@H](CO)C(=O)N[C@@H](CO)C(=O)N[C@H](C(=O)N1CCC[C@H]1C(=O)N[C@H](C(=O)NCC(=O)N[C@@H](CO)C(=O)N[C@@H](CC(N)=O)C(=O)N[C@H](C(=O)N[C@@H](Cc1ccc(O)cc1)C(N)=O)[C@@H](C)O)C(C)C)[C@@H](C)O [Example 96]
